Reference: US20210171948A1, “COMPOSITIONS AND METHODS FOR TARGETING GLYPICAN-2 IN THE TREATMENT OF CANCER” (Shepherd Therapeutics, Inc., priority 2019, published 2021)

Columns and labels:
[1] = tested on: CHP212 cells; experiment: Cell viability after siRNA transfection, Cell Titer Glo 2.0 (Example 3); type: cell-based
Description: (§1) GPC2 mRNA knockdown and changes in cell viability were assessed in multiple cancer cell lines. Cells were transfected with either a scrambled control siRNA or with GPC2 siRNA sequence 3 or sequence 5 from Table 7 using the RNAiMAX Lipofectamine kit (Invitrogen, Carlsbad, Calif.) as previously described in Example 2, either in 96 well format (for viability assays) or 6 well format (for knockdown assessment). Following a 96 hour incubation period, cells were washed and the viability measurement was assessed using Cell Titer Glo 2.0. Total RNA was isolated from the 6 well plate samples to determine knockdown efficiency.

[2] = tested on: RH41 cells; experiment: as above; type: cell-based
Description: as §1

[3] = tested on: TC71 cells; experiment: as above; type: cell-based
Description: as §1

[4] = tested on: COV362 cells; experiment: as above; type: cell-based; conditions: COV362 (Ovarian Carcinoma); 96 hour incubation
Description: as §1

[5] = tested on: TOV112D cells; experiment: as above; type: cell-based
Description: as §1

[6] = tested on: SNU16 cells; experiment: as above; type: cell-based
Description: as §1

[7] = tested on: SKNAS cells; experiment: as above; type: cell-based
Description: as §1

[8] = tested on: MCF7 cells; experiment: as above; type: cell-based
Description: as §1

[9] = tested on: IMR32 cells; experiment: as above; type: cell-based
Description: as §1

[10] = tested on: RH30 cells; experiment: as above; type: cell-based
Description: as §1

[11] = tested on: TC32 cells; experiment: as above; type: cell-based
Description: as §1

[12] = tested on: GIST-T1 cells; experiment: as above; type: cell-based
Description: as §1

[13] = tested on: GPC2 mRNA; experiment: GPC2 mRNA knockdown in cell lines of the cisplatin experiment (Example 5); type: cell-based, human
Description: GPC2 mRNA was reduced using the indicated siRNAs and changes in cell viability were assessed in multiple cancer cell lines, in combination with Cisplatin treatment. Cells were transfected with either a scrambled control siRNA or with GPC2 siRNA sequences 3 or 5 from Table 7 using the RNAiMAX Lipofectamine kit (Invitrogen, Carlsbad, Calif.), as previously described, in either in 96 well (for viability assays) or 6 well format (for total RNA). Cisplatin was added at increasing concentrations (0 to 30 uM) to transfected cells at 24 hours post transfection. Following a 72 hour incubation period, cell viability was measured using Cell Titer Glo 2.0. Total RNA samples were also isolated to measure knockdown efficiency.

[14] = tested on: KELLY cells; experiment: Doxorubicin IC50 in siRNA-transfected cells, Cell Titer Glo viability (Example 8); type: cell-based
Description: (§2) GPC2 mRNA expression was reduced and changes in cell viability were assessed in multiple neuroblastoma cell lines. Cells were transfected with either a control siRNA or with GPC-2 siRNA sequences 3, 5 or 7 from Table 7 using the RNAiMAX Lipofectamine kit (Invitrogen, Carlsbad, Calif.) as previously described in 96 wells for viability assays. Doxorubicin was added at increasing concentrations (0-5 uM) to transfected cells at 24 hours post transfection. Following a 72 hour incubation period, viability measurements were made using Cell Titer Glo.

[15] = tested on: CHLA-172 cells; experiment: as above; type: cell-based; conditions: CHLA-172 cells transfected with the labelled siRNA; doxorubicin added 24 hours post transfection, 72 hour incubation
Description: as §2

[16] = tested on: CHLA-136 cells; experiment: as above; type: cell-based; conditions: CHLA-136 cells transfected with the labelled siRNA; doxorubicin added 24 hours post transfection, 72 hour incubation
Description: as §2

[17] = tested on: SKNAS cells; experiment: as above; type: cell-based
Description: as §2

## GPC2 siRNA 3: siRNA duplex: sense CCUGCUUGGACCUCGAUAA[dT][dT] (SEQ ID NO: 207), anti-sense UUAUCGAGGUCCAAGCAGG[dT][dT] (SEQ ID NO: 208) (sense CCUGCUUGGACCUCGAUAANN; antisense UUAUCGAGGUCCAAGCAGGNN; 3' dTdT overhangs, chemistry not fully specified; listed as Homo sapiens)
[1]
  % Viability: 70.18%
[2]
  % Viability: 131.49%
[3]
  % Viability: 102.39%
[4]
  % Viability: 102.76%
[5]
  % Viability: 152.77%
[6]
  % Viability: 92.74%
[7]
  % Viability: 84.58%
[8]
  % Viability: 79.67%
[9]
  % Viability: 89.05%
[10]
  % Viability: 79.02%
[11]
  % Viability: 78.24%
[12]
  % Viability: 70.87%
[13]; CHLA-90 (Neuroblastoma)
  % GPC2 knockdown: 50%
[13]; CHLA-136 (Neuroblastoma)
  % GPC2 knockdown: 25%
[13]; CHLA-172 (Neuroblastoma)
  % GPC2 knockdown: 5%
[13]; CHP212 (Neuroblastoma)
  % GPC2 knockdown: 60%
[13]; COV362 (Ovarian cancer)
  % GPC2 knockdown: 85%
[13]; GIST-T1 (Gastrointestinal Stromal)
  % GPC2 knockdown: 55%
[13]; KELLY (Neuroblastoma)
  % GPC2 knockdown: 65%
[13]; RH30 (Rhabdomyosarcoma)
  % GPC2 knockdown: 80%
[13]; RH41 (Rhabdomyosarcoma)
  % GPC2 knockdown: 55%
[13]; SH-SY5Y (Neuroblastoma)
  % GPC2 knockdown: 55%
[13]; SK-N-BE2 (Neuroblastoma)
  % GPC2 knockdown: 55%
[13]; SKNAS (Neuroblastoma)
  % GPC2 knockdown: 40%
[13]; SNU16 (Gastric carcinoma)
  % GPC2 knockdown: 50%
[13]; TC32 (Ewing's sarcoma)
  % GPC2 knockdown: 70%
[13]; TC71 (Ewing's sarcoma)
  % GPC2 knockdown: 55%
[13]; TOV112D (Ovarian cancer)
  % GPC2 knockdown: 90%
[14]; KELLY
  Data Summary: effect of knockdown on sensitivity to doxorubicin: not increase sensitivity
[14]; KELLY cells transfected with the labelled siRNA, doxorubicin added 24 hours post transfection, 72 hour incubation
  IC50: 0.07 µM
[15]
  IC50: 2 µM
[16]
  IC50: 0.17 µM
[17]; SKNAS
  Data Summary: effect of knockdown on sensitivity to doxorubicin: increases sensitivity to
[17]; SKNAS cells transfected with the labelled siRNA, doxorubicin added 24 hours post transfection, 72 hour incubation
  IC50: 0.04 µM
